Assay results: patent publication US20040009921A1, “Methods and compositions for the treatment of cancer” (Allergan, Inc., priority 2002, published 2004)

How the values were obtained:
[1] = molecular target: T1, RARα (Homo sapiens, UniProt P10276); assay: Western blotting of RAR protein in transfected HEK293 cells; assay type: cell-based; details: HEK293 co-expressing RXRα with RARα
T1 construct: expressed in transfected cells; host or cells: HEK293
T1 sequence (P10276 1-462): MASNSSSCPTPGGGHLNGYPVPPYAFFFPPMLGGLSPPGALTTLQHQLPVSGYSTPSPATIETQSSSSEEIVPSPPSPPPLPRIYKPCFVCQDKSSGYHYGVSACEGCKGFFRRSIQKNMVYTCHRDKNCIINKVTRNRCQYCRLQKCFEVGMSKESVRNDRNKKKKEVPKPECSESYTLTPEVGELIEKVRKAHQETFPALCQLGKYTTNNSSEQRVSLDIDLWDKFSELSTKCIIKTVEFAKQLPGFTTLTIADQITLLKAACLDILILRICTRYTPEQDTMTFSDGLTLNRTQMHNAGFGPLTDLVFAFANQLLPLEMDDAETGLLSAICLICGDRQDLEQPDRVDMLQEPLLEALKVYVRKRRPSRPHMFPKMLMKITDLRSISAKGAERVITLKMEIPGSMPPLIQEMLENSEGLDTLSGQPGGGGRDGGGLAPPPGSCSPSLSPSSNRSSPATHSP
Protocol: HEK293 cells were seeded at a density of 2×10 per dish were seeded into 100-mm dishes and cultured overnight in DMEM containing 10% FBS. Cells were transfected with 1-4 μg of various cDNA or parental expression vectors (8 μg of DNA in total) using Lipofectamine®. Five hours after transfection, cells were fed with fresh culture media DMEM containing 10% charcoal-treated FBS with vehicle DMSO or retinoids prepared in DMSO. […]
Total cell lysates were homogenized by passing through a QIAshredder® (Qiagen) and cleared from insoluble materials by centriftigation at 12,000 g. Protein concentration was determined using a Bradford total protein assay kit (Bio-Rad). […]

[2] = molecular target: T2, RXRα (Homo sapiens, UniProt P19793); assay: Western blotting of RXRα protein in HEK293 cells and stable lines; assay type: cell-based
T2 construct: The RXRα coding region was amplified from this clone by PCR; expressed in transfected cells; host or cells: HEK293 (transient; CAT transfected with RXRα)
T2 sequence (P19793 1-462): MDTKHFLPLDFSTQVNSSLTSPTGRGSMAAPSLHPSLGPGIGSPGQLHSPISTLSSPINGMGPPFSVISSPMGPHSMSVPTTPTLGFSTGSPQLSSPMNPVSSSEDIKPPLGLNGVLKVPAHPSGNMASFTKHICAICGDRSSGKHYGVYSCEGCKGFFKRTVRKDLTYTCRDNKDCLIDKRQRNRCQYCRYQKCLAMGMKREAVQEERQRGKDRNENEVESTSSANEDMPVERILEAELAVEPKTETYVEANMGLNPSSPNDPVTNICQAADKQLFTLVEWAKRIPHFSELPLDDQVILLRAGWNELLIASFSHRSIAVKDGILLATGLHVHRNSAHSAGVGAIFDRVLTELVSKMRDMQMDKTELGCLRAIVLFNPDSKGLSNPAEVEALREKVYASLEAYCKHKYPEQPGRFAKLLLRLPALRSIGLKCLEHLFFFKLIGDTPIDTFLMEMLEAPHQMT
Protocol: (A) Western blotting analysis of HEK293 cells transfected with a combination of expression vectors for LacZ (2 μg), V5-tagged β-catenin(4 μg), and Flag-tagged RXRα (2 μg) as indicated below the gels. […] RXRα protein was measured using an HRP-conjugated mouse monoclonal antibody against the Flag tag. (B) Western blotting analysis of stable cell line RBC that overexpresses both β-catenin and RXRα. […] (C) Western blotting analysis of stable cell line CAT that overexpresses only β-catenin. […] Endogenous and overexpressed β-catenin were detected using a rabbit polyclonal antibody as indicated by “Total” whereas overexpressed β-catenin was analyzed using a mouse monoclonal antibody against the V5 tag. Endogenous and overexpressed RXRα were detected by a rabbit polyclonal antibody against RXRα, whereas overexpressed RXRα was determined by an HRP-conjugated mouse monoclonal antibody against the Flag tag. (D) Western blotting analysis of HEK293 cells transfected with a fixed amount of β-catenin (4 μg) plus an increasing amount of RXRα as indicated at the top. […] (E) Western blotting analysis of HEK293, CV-1, and Hela cells transfected with 2 μg of RXRα and 4 μg of wild type or mutant β-catenin. α. […] (F) Northern blotting analysis of RBC cells using β-catenin as a probe.
FIG. 4 Receptor and ligand specificity in degradation of β-catenin by retinoid receptors. HEK293 cells transfected with expression vectors for β-catenin (4 μg) and RXRs (2 μg) or RARs (2 μg) and treated with ligands at concentrations indicated at the top of each gel. Protein levels were detected by Western blotting as shown in this figure. β-catenin and RARs were detected by HRP-conjugated antibodies against their V5 tag. RXRs were detected by HRP-conjugated antibodies against their Flag tag. […] In this experiment, the amount of expression vectors for RXRα and RARs used in transfection was 1 μg.
HEK293 cells were seeded at a density of […] per dish were seeded into 100-mm dishes and cultured overnight in DMEM containing 10% FBS. Cells were transfected with 1-4 μg of various cDNA or parental expression vectors (8 μg of DNA in total) using Lipofectamine®. Five hours after transfection, cells were fed with fresh culture media DMEM containing 10% charcoal-treated FBS with vehicle DMSO or retinoids prepared in DMSO. After a given time of treatment, cells were harvested and lysed in a buffer containing 1% Nonidet® P-40, 30 mM Tris-HCl (pH7.4), 0.5 mM EDTA (pH 8.0), 150 mM NaCl, 10% glycerol, 1 mM sodium orthovanadate, 40 mM NaF, 0.5 mM phenylmethylsulfonyl fluoride (PMSF) and a cocktail of protease inhibitors (Merck).
Total cell lysates were homogenized by passing through a QIAshredder® (Qiagen) and cleared from insoluble materials by centriftigation at 12,000 g. Protein concentration was determined using a Bradford total protein assay kit (Bio-Rad). Total cell lysates were electrophoresed using a 4-12% SDS-PAGE gradient gel and transferred to either nitrocellulose or PVDF filter membranes. The membranes were blocked with 10% non-fat milk reconstituted from dairy milk powder in phosphate-buffered saline (PBS) containing 0.1% Tween®-20 (PBST). The membranes were incubated with primary antibodies at room temperature for 2 hours or at 4° C. for overnight. After the removal of unbound antibodies, membranes were incubated with horseradish peroxidase-conjugated secondary antibodies for one hour at room temperature and washed five times with PBST.

CC(/C=C/[C@@H]1C[C@]1(C)c1ccc2c(c1)C(C)(C)CCC2(C)C)=C\C(=O)O [AGN 4204]
degradation of RARα [1]: RXR-ligand-dependent degradation | endogenous RXRα protein ([2]; CAT cells, 0.1 μM, 17 hours): a decrease of the endogenous RXRα was observed | amount of RXRα protein ([2]; HEK293, independent of β-catenin, 0.1 μM): a reduction inn the amount of RXRα | degradation of RXRα ([2]; HEK293 co-expressing RXRα with RARα): RXR-ligand-dependent degradation | concentration effective in inducing degradation of RXRα ([2]; HEK293 transfected with β-catenin and RXRα, 17 hours): 1 nM | time at which degradation of RXRα was first detected ([2]; RBC cells, 0.1 μM): 1 h
